From US20260152751A1, “INTERFERING RNA FOR INHIBITING JAK1 GENE EXPRESSION AND USE THEREOF” (Jenkem Technology Co., Ltd. (BEIJING), priority 2024, published 2026)
[Ψ] = pseudouridine; d = 2'-deoxy (DNA); r = 2'-OH (RNA)

How the values were obtained:
JAK1 gene [1] = assay: siRNA screening: qPCR of JAK1 relative expression in transfected 293T cells; format: cell-based, human; conditions: siRNA 50 nM, 48 h after transfection, GAPDH reference, siNC = 100.00
Experimental: (§1) One day prior to transfection, 293T cells were seeded into a 24-well cell culture plate at 1×10^5 cells/well, and the culture medium was 500 μL of DMEM containing 10% FBS and 1% penicillin-streptomycin. Three replicate wells were made for each group. The culture plate was placed in an incubator with 5% CO2 at 37° C. for 24 h to allow the cells to adhere to the wall. On the day of transfection, the culture medium was changed to 450 μL of DMEM culture medium without antibiotics (containing 10% FBS). The siRNAs were diluted with 25 μL of Opti-MEM culture medium, and the control group was siNC at the same concentration; a Lipofectamine™RNAiMAX transfection reagent (Lip) was diluted with another 25 μL of Opti-MEM culture medium, and the mixture was left to stand at room temperature for 5 min; and the two dilutions were uniformly mixed and left to stand at room temperature for 5 min. 50 μL of the mixed solution described above was added to each well to obtain a final transfection volume of 500 μL, and the working concentration of the siRNA was 50 nM. After the cells were further cultured in an incubator with 5% CO2 at 37° C. for 48 h, the total RNA of the cells was extracted.
RNA was extracted using Eastep™ Super total RNA extraction kit, with the detailed procedures as follows:
1) 300 μL of RNA lysis solution and 300 μL of RNA diluent were added into each well of the 24-well cell culture plate, and the mixture was uniformly mixed and subsequently transferred to a 1.5 mL centrifuge tube. The mixture was centrifuged at 14000 g for 10 min, and the supernatant was carefully pipetted into a new 1.5 mL centrifuge tube.
2) A 0.5-fold volume of absolute ethanol was added, and the mixture was uniformly mixed by allowing the tube to be repeatedly upside down 15-20 times. Subsequently, the mixture was transferred to a centrifuge column and centrifuged at 12000 g for 1 min. The filtrate was discarded.
3) 600 μL of RNA wash buffer was added, and the mixture was centrifuged at 12000 g for 1 min. The filtrate was discarded.
4) 50 μL of DNase I incubation buffer was added, followed by DNA digestion at room temperature for 15 min.
5) 600 μL of RNA wash buffer was added, the mixture was centrifuged at 12000 g for 1 min, and the filtrate was discarded. This procedure was repeated once. Subsequently, the mixture was centrifuged at 14000 g for 2 min to remove the residual RNA wash buffer, and then the centrifuge column was placed in a collection tube.
6) A proper amount of RNase-free H2O was added, and the mixture was left to stand for 15 min at room temperature, followed by centrifugation at 14000 g for 1 min. The RNA quality and concentration were detected using NanoDrop™. The extracted RNA was incubated at 70° C. for 5 min and immediately placed in an ice bath for 5 min for later use.
(§2) 1) The RNA was reverse-transcribed into a cDNA template using the All-in-One First-Strand Synthesis MasterMix (LABLEAD, Cat. No.: F0202) kit. The reaction system was established according to Table 2, where all components were mixed uniformly and centrifuged to collect the liquid at the bottom of a tube, and the PCR program was run according to the settings of 37° C. for 2 min, 55° C. for 15 min, and 85° C. for 5 min, thereby giving the cDNA template.
(§3) 2) The gene expression level was detected using the Taq SYBR® Green qPCR Premix (LABLEAD, Cat. No.: R0202) kit, and the qPCR system was established according to Table 3. All components were mixed uniformly and centrifuged to collect the liquid at the bottom of a tube, and the PCR program was run according to the following settings: • Step1: 95° C. 30 s; • Step2: 95° C. 10 s; • Step3: 60° C. 30 s+Plate Read; • Step4: Go to Step2, 40 times; • Step5: Melt Curve 65 to 95° C., increment 0.5° C., for 5 s+Plate Read.
(§4) GAPDH was used as an endogenous reference to detect the relative expression level of JAK1 gene, and the sequences of the primers used are as follows: […]

JAK1 gene [2] = assay: qPCR of JAK1 expression in HaCaT cells transfected with modified siJAK1; format: cell-based, human; conditions: siRNA 50 nM, 48 h after transfection, JAK1 by qPCR, siNC = 100.00
Experimental: as §1, §2, §3, §4
According to the method described in Example 2, human keratinocyte HaCaT cells were transfected with the modified siJAK1 at an siRNA working concentration of 50 nM. The expression level of JAK1 was detected by qPCR 48 h after the transfection. The controls included siNC and unmodified siJAK1 at the same concentration.

siNC: non-targeting control sequence; sense strand SEQ ID NO: 43, antisense strand SEQ ID NO: 44 (sense UUCUCCGAACGUGUCACGUTT; antisense ACGUGACACGUUCGGAGAATT; Bought control siRNA with 3' TT overhangs, chemistry not given here, further chemistry not given here) [reference compound]
Relative expression level of JAK1, Mean value (Mean) (JAK1 gene [1]): 100.00 | Relative expression level, Mean value (Mean) (JAK1 gene [2]): 100.00

siJAK1-4389: siRNA targeting JAK1; sense strand SEQ ID NO: 24, antisense strand SEQ ID NO: 38 (sense GGACUUAGCCCUCAAAUUUCA; antisense AAAUUUGAGGGCUAAGUCCAU; listed as RNA, chemistry not fully specified)
Relative expression level of JAK1, Mean value (Mean) (JAK1 gene [1]): 27.56

siJAK1-3283-m10: pseudouridine-modified siJAK1-3283; sense strand SEQ ID NO: 50, antisense strand SEQ ID NO: 54 (sense AGAACAUUGUGAAGUACAATT; antisense UUGUACUUCACAAUGUUCUTT; sense: sugars from the 5' end r19 d2, [Ψ] at 7, 8, 10, 15, backbone not given here; antisense: sugars from the 5' end r19 d2, [Ψ] at 1, 2, 4, 7, 8, 14, 16, 17, 19, backbone not given here)
Relative expression level, Mean value (Mean) (JAK1 gene [2]): 15.89

siJAK1-4410: siRNA targeting JAK1; sense strand SEQ ID NO: 25 dTdT, antisense strand SEQ ID NO: 39 dTdT (sense CAGUAUCUAUACAGUACUA; antisense UAGUACUGUAUAGAUACUG; listed as RNA, chemistry not fully specified)
Relative expression level of JAK1, Mean value (Mean) (JAK1 gene [1]): 24.41

siJAK1-4359: siRNA targeting JAK1; sense strand SEQ ID NO: 23, antisense strand SEQ ID NO: 37 (sense CACAUUAAUCAUAGAUAAAGA; antisense UUUAUCUAUGAUUAAUGUGCC; listed as RNA, chemistry not fully specified)
Relative expression level of JAK1, Mean value (Mean) (JAK1 gene [1]): 31.11

siJAK1-3630: siRNA targeting JAK1; sense strand SEQ ID NO: 21 dTdT, antisense strand SEQ ID NO: 35 dTdT (sense GAAUGUUUAAUGCAAUCUA; antisense UAGAUUGCAUUAAACAUUC; listed as RNA, chemistry not fully specified)
Relative expression level of JAK1, Mean value (Mean) (JAK1 gene [1]): 25.58

siJAK1-474: siRNA targeting JAK1; sense strand SEQ ID NO: 15 dTdT, antisense strand SEQ ID NO: 29 dTdT (sense GAAUAAAUGCAGUAUCUAA; antisense UUAGAUACUGCAUUUAUUC; listed as RNA, chemistry not fully specified)
Relative expression level of JAK1, Mean value (Mean) (JAK1 gene [1]): 20.24

siJAK1-4096: siRNA targeting JAK1; sense strand SEQ ID NO: 22 dTdT, antisense strand SEQ ID NO: 36 dTdT (sense GGCACACUGUAGUGCUUAA; antisense UUAAGCACUACAGUGUGCC; listed as RNA, chemistry not fully specified)
Relative expression level of JAK1, Mean value (Mean) (JAK1 gene [1]): 38.56

siJAK1-1131: siRNA targeting JAK1; sense strand SEQ ID NO: 17, antisense strand SEQ ID NO: 31 (sense GCGAUAUAUUCCAGAAACAUU; antisense UGUUUCUGGAAUAUAUCGCUU; listed as RNA, chemistry not fully specified)
Relative expression level of JAK1, Mean value (Mean) (JAK1 gene [1]): 23.55

siJAK1-3283: siRNA targeting JAK1; sense strand SEQ ID NO: 20 dTdT, antisense strand SEQ ID NO: 34 dTdT (sense AGAACAUUGUGAAGUACAA; antisense UUGUACUUCACAAUGUUCU; listed as RNA, chemistry not fully specified)
Relative expression level of JAK1, Mean value (Mean) (JAK1 gene [1]): 16.41 | Relative expression level, Mean value (Mean) (JAK1 gene [2]): 14.73

siJAK1-4627: siRNA targeting JAK1; sense strand SEQ ID NO: 26 dTdT, antisense strand SEQ ID NO: 40 dTdT (sense GCAUGUUAAUUCUCAAGAA; antisense UUCUUGAGAAUUAACAUGC; listed as RNA, chemistry not fully specified)
Relative expression level of JAK1, Mean value (Mean) (JAK1 gene [1]): 38.64

siJAK1-826: siRNA targeting JAK1; sense strand SEQ ID NO: 16 dTdT, antisense strand SEQ ID NO: 30 dTdT (sense GGCAUGGAACCAACGACAA; antisense UUGUCGUUGGUUCCAUGCC; listed as RNA, chemistry not fully specified)
Relative expression level of JAK1, Mean value (Mean) (JAK1 gene [1]): 14.18 | Relative expression level, Mean value (Mean) (JAK1 gene [2]): 13.33

siJAK1-2200: siRNA targeting JAK1; sense strand SEQ ID NO: 18 dTdT, antisense strand SEQ ID NO: 32 dTdT (sense GUUUCGAUCGGAUCCUCAA; antisense UUGAGGAUCCGAUCGAAAC; listed as RNA, chemistry not fully specified)
Relative expression level of JAK1, Mean value (Mean) (JAK1 gene [1]): 34.77

siJAK1-2714: siRNA targeting JAK1; sense strand SEQ ID NO: 19 dTdT, antisense strand SEQ ID NO: 33 dTdT (sense GGUGCUGUCUAGGCAAGAA; antisense UUCUUGCCUAGACAGCACC; listed as RNA, chemistry not fully specified)
Relative expression level of JAK1, Mean value (Mean) (JAK1 gene [1]): 19.12

siJAK1-5026: siRNA targeting JAK1; sense strand SEQ ID NO: 27 dTdT, antisense strand SEQ ID NO: 41 dTdT (sense GAUUCAAUGUGAACGAUUA; antisense UAAUCGUUCACAUUGAAUC; listed as RNA, chemistry not fully specified)
Relative expression level of JAK1, Mean value (Mean) (JAK1 gene [1]): 32.40

siJAK1-826-m4: pseudouridine-modified siJAK1-826; sense strand SEQ ID NO: 49, antisense strand SEQ ID NO: 53 (sense GGCAUGGAACCAACGACAAUU; antisense UUGUCGUUGGUUCCAUGCCTT; sense: sugars from the 5' end r19 d2, [Ψ] at 5, backbone and T or U not given here; antisense: sugars from the 5' end r19 d2, [Ψ] at 1, 2, 4, 7, 8, 11, 12, 16, backbone not given here)
Relative expression level, Mean value (Mean) (JAK1 gene [2]): 13.55

siJAK1-5034: siRNA targeting JAK1; sense strand SEQ ID NO: 28, antisense strand SEQ ID NO: 42 (sense GAACGAUUACGGUCUUUAUGA; antisense AUAAAGACCGUAAUCGUUCAC; listed as RNA, chemistry not fully specified)
Relative expression level of JAK1, Mean value (Mean) (JAK1 gene [1]): 35.89
